What was measured:
Format in all cases: in vivo
Avena fatua (wild oat) = assay: Greenhouse postemergence visual injury, wild oat (AVEFA); conditions: Example 6
Text: (§1) Seeds of the desired test plant species were planted in a 90:10% v/v (volume/volume) mixture of PRO-MIX® BX (Premier Tech Horticulture, Quakertown, PA, USA) and PROFILE® GREENS GRADE™ (Profile Products LLC, Buffalo Grove, IL, USA) planting mixture, which typically has a pH of 5.2 to 6.2 and an organic matter content of at least 50 percent, in plastic pots with a surface area of 103.2 square centimeters (cm^2). When required to ensure good germination and healthy plants, a fungicide treatment and/or other chemical or physical treatment was applied. The plants were grown for 7-36 days (d) in a greenhouse with an approximate 14-hour (h) photo-period which was maintained at about 23° C. during the day and 22° C. during the night. Nutrients and water were added on a regular basis and supplemental lighting was provided with overhead metal halide 1000-Watt lamps as necessary. The plants were employed for testing when they reached the second or third true leaf stage.
(§2) Emulsifiable concentrates of each of each pyridine carboxylate herbicide (Compound A or Compound B) were prepared at 100 grams acid equivalent per liter (g ae/L). An aliquot of each emulsifiable concentrate was placed in a 25 mL glass vial and diluted with an aqueous mixture of 1.25% (v/v) ACTIROB® B esterified rapeseed oil (Bayer Crop Science, Research Triangle Park, NC, USA) or MSO® Concentrate with LECI-TECH® methylated soybean oil (Loveland Products, Loveland, CO, USA) to obtain concentrated stock solutions at the highest application rate for each herbicide, based upon a 12 milliliter (mL) application volume at a rate of 187 liters per hectare (L/ha). The concentrated stock solutions were further diluted with an aqueous mixture of 1.25% v/v ACTIROB® B or MSO® Concentrate with LECI-TECH® to obtain stock solutions at reduced application rates for each herbicide. Spray solutions of the herbicide combinations (Compound A or Compound B plus safener) were prepared by adding weighed amounts or aliquots of the safener to the stock solutions of Compound A or Compound B to form 12-mL spray solutions in two-way combinations.
(§3) The spray solutions were applied to the plant material with an overhead Mandel track sprayer equipped with 8002E nozzles calibrated to deliver 187 L/ha over an application area of 0.503 square meters (m^2) at a spray height of 18 inches (43 centimeters (cm)) above the average plant canopy. […]
(§4) The treated plants and control plants were placed in a greenhouse as described above and watered by sub-irrigation to prevent wash-off of the test compounds. After 20-22 d, the condition of the test plants as compared with that of the control plants was determined visually and scored on a scale of 0 to 100 percent where 0 corresponds to no injury and 100 corresponds to complete kill.

[1] = test system: Matricaria chamomilla (wild chamomile); assay: Greenhouse postemergence visual injury, wild chamomile (MATCH); conditions: Example 1
Text: as §1, §2, §3, §4

[2] = test system: Ipomoea hederacea (ivyleaf morningglory); assay: Greenhouse postemergence visual injury, ivyleaf morningglory (IPOHE); conditions: Example 6
Text: as §1, §2, §3, §4

[3] = test system: Ambrosia artemisiifolia (common ragweed); assay: Greenhouse postemergence visual injury, common ragweed (AMBEL); conditions: Example 7
Text: as §1, §2, §3, §4

[4] = test system: Hordeum vulgare (spring barley); assay: Greenhouse postemergence visual injury, spring barley (HORVS)
Text: as §1, §2
(§5) The spray solutions were applied to the plant material with an overhead Mandel track sprayer equipped with 8002E nozzles calibrated to deliver 187 L/ha over an application area of 0.503 square meters (m^2) at a spray height of 18 inches (43 centimeters (cm)) above the average plant canopy. Control plants were sprayed in the same manner with the solvent blank. All herbicide (component a) application rates are given as “g ae/ha” and all safener (component b) application rates are given as “g ai/ha.”
as §4

[5] = test system: Polygonum convolvulus (wild buckwheat); assay: Greenhouse postemergence visual injury, wild buckwheat (POLCO); conditions: Example 6
Text: as §1, §2, §3, §4

[6] = test system: Echinochloa crus-galli (barnyardgrass); assay: Greenhouse postemergence visual injury, barnyardgrass (ECHCG)
Text: as §1, §2, §5, §4

[7] = test system: Cirsium arvense (Canada thistle); assay: Greenhouse postemergence visual injury, Canada thistle (CIRAR); conditions: Example 6
Text: as §1, §2, §3, §4

Glycine max (soybean) = assay: Greenhouse postemergence visual injury, soybean (GLXMA)
Text: as §1, §2, §5, §4

Zea mays (maize) = assay: Greenhouse postemergence visual injury, maize (ZEAMX)
Text: as §1, §2, §5, §4

[8] = test system: Triticum aestivum (winter wheat); assay: Greenhouse postemergence visual injury, winter wheat (TRZAW)
Text: as §1, §2, §5, §4

[9] = test system: Leptochloa chinensis (Chinese sprangletop); assay: Greenhouse postemergence visual injury, Chinese sprangletop (LEFCH); conditions: Example 6
Text: as §1, §2, §3, §4

[10] = test system: Saccharum officinarum (sugarcane); assay: Greenhouse postemergence visual injury, sugarcane (SACOF); conditions: Example 3
Text: as §1, §2, §5, §4

[11] = test system: Brassica napus (winter rape); assay: Greenhouse postemergence visual injury, winter rape (BRSNW)
Text: as §1, §2, §5, §4

[12] = test system: Oryza sativa (common rice); assay: Greenhouse postemergence visual injury, rice (ORYSA); conditions: Example 6
Text: as §1, §2, §3, §4

[13] = test system: Helianthus annuus (common sunflower); assay: Greenhouse postemergence visual injury, common sunflower (HELAN)
Text: as §1, §2, §5, §4

[14] = isoxadifen-ethyl 10 g/ha, Example 1
[15] = isoxadifen-ethyl 20 g/ha, Example 1
[16] = isoxadifen-ethyl 20 g/ha, Example 2
[17] = isoxadifen-ethyl 40 g/ha, Example 1
[18] = isoxadifen-ethyl 40 g/ha, Example 2
[19] = isoxadifen-ethyl 80 g/ha, Example 2
[20] = isoxadifen-ethyl 120 g/ha, Example 2
[21] = isoxadifen-ethyl 10 g/ha, Example 7
[22] = isoxadifen-ethyl 20 g/ha, Example 6
[23] = isoxadifen-ethyl 20 g/ha, Example 7
[24] = isoxadifen-ethyl 40 g/ha, Example 6
[25] = isoxadifen-ethyl 80 g/ha, Example 6
[26] = isoxadifen-ethyl 20 g/ha, Example 5
[27] = isoxadifen-ethyl 40 g/ha, Example 5
[28] = isoxadifen-ethyl 80 g/ha, Example 5
[29] = isoxadifen-ethyl 120 g/ha, Example 5

SMILES: N#CCOC(=O)c1nc(-c2ccc3cc[nH]c3c2F)c(F)c(N)c1Cl [Compound A, cyanomethyl 4-amino-3-chloro-5-fluoro-6-(7-fluoro-1H-indol-6-yl)pyridine-2-carboxylate]
- % visual injury, Ob (Avena fatua (wild oat); Compound A 20 g/ha): 0%
- % visual injury, Ob ([1]; Compound A 20 g/ha): 50%
- % visual injury, Ob ([2]; Compound A 20 g/ha): 0%
- % visual injury, Ob ([3]; Compound A 10 g/ha): 100%
- % visual injury, Ob ([3]; Compound A 20 g/ha): 100%
- % visual injury, Ob ([4]; Compound A 20 g/ha, Example 1): 0%
- % visual injury, Ob ([4]; Compound A 40 g/ha, Example 2): 17%
- % visual injury, Ob ([5]; Compound A 20 g/ha): 100%
- % visual injury, Ob ([6]; Compound A 10 g/ha, Example 7): 100%
- % visual injury, Ob ([6]; Compound A 20 g/ha, Example 6): 85%
- % visual injury, Ob ([6]; Compound A 20 g/ha, Example 7): 100%
- % visual injury, Ob ([7]; Compound A 20 g/ha): 95%
- % visual injury, Ob (Glycine max (soybean); Compound A 10 g/ha, Example 7): 100%
- % visual injury, Ob (Glycine max (soybean); Compound A 20 g/ha, Example 6): 100%
- % visual injury, Ob (Glycine max (soybean); Compound A 20 g/ha, Example 7): 100%
- % visual injury, Ob (Zea mays (maize); Compound A 10 g/ha, Example 7): 48%
- % visual injury, Ob (Zea mays (maize); Compound A 20 g/ha, Example 6): 13%
- % visual injury, Ob (Zea mays (maize); Compound A 20 g/ha, Example 7): 60%
- % visual injury, Ob (Zea mays (maize); Compound A 40 g/ha, Example 5): 55%
- % visual injury, Ob ([8]; Compound A 20 g/ha, Example 6): 25%
- % visual injury, Ob ([8]; Compound A 40 g/ha, Example 2): 25%
- % visual injury, Ob ([9]; Compound A 20 g/ha): 60%
- % visual injury, Ob ([10]; Compound A 5 g/ha): 18%
- % visual injury, Ob ([10]; Compound A 10 g/ha): 48%
- % visual injury, Ob ([10]; Compound A 20 g/ha): 55%
- % visual injury, Ob ([10]; Compound A 40 g/ha): 60%
- % visual injury, Ob ([11]; Compound A 20 g/ha, Example 1): 95%
- % visual injury, Ob ([11]; Compound A 20 g/ha, Example 6): 85%
- % visual injury, Ob ([12]; Compound A 20 g/ha): 10%
- % visual injury, Ob ([13]; Compound A 20 g/ha, Example 6): 95%
- % visual injury, Ob ([13]; Compound A 40 g/ha, Example 4): 100%
- % visual injury, Ob ([13]; Compound A 40 g/ha, Example 5): 100%

SMILES: CCOC(=O)C1=NOC(c2ccccc2)(c2ccccc2)C1 [Isoxadifen-ethyl, isoxadifen-ethyl]
- % visual injury, Ob (Avena fatua (wild oat); isoxadifen-ethyl 20 g/ha): 0%
- % visual injury, Ob (Avena fatua (wild oat); isoxadifen-ethyl 40 g/ha): 0%
- % visual injury, Ob (Avena fatua (wild oat); isoxadifen-ethyl 80 g/ha): 0%
- % visual injury, Ob ([1]; isoxadifen-ethyl 10 g/ha): 0%
- % visual injury, Ob ([1]; isoxadifen-ethyl 20 g/ha): 0%
- % visual injury, Ob ([1]; isoxadifen-ethyl 40 g/ha): 0%
- % visual injury, Ob ([2]; isoxadifen-ethyl 20 g/ha): 0%
- % visual injury, Ob ([2]; isoxadifen-ethyl 40 g/ha): 0%
- % visual injury, Ob ([2]; isoxadifen-ethyl 80 g/ha): 0%
- % visual injury, Ob ([3]; isoxadifen-ethyl 10 g/ha): 0%
- % visual injury, Ob ([3]; isoxadifen-ethyl 20 g/ha): 0%
- % visual injury, Ob [4, 14]: 0%
- % visual injury, Ob [4, 15]: 0%
- % visual injury, Ob [4, 16]: 0%
- % visual injury, Ob [4, 17]: 0%
- % visual injury, Ob [4, 18]: 0%
- % visual injury, Ob [4, 19]: 0%
- % visual injury, Ob [4, 20]: 0%
- % visual injury, Ob ([5]; isoxadifen-ethyl 20 g/ha): 0%
- % visual injury, Ob ([5]; isoxadifen-ethyl 40 g/ha): 0%
- % visual injury, Ob ([5]; isoxadifen-ethyl 80 g/ha): 0%
- % visual injury, Ob [6, 21]: 0%
- % visual injury, Ob [6, 22]: 0%
- % visual injury, Ob [6, 23]: 0%
- % visual injury, Ob [6, 24]: 0%
- % visual injury, Ob [6, 25]: 0%
- % visual injury, Ob ([7]; isoxadifen-ethyl 20 g/ha): 0%
- % visual injury, Ob ([7]; isoxadifen-ethyl 40 g/ha): 0%
- % visual injury, Ob ([7]; isoxadifen-ethyl 80 g/ha): 0%
- % visual injury, Ob (Glycine max (soybean); [21]): 0%
- % visual injury, Ob (Glycine max (soybean); [22]): 0%
- % visual injury, Ob (Glycine max (soybean); [23]): 0%
- % visual injury, Ob (Glycine max (soybean); [24]): 0%
- % visual injury, Ob (Glycine max (soybean); [25]): 0%
- % visual injury, Ob (Zea mays (maize); [21]): 0%
- % visual injury, Ob (Zea mays (maize); [26]): 0%
- % visual injury, Ob (Zea mays (maize); [22]): 0%
- % visual injury, Ob (Zea mays (maize); [23]): 0%
- % visual injury, Ob (Zea mays (maize); [27]): 0%
- % visual injury, Ob (Zea mays (maize); [24]): 0%
- % visual injury, Ob (Zea mays (maize); [28]): 0%
- % visual injury, Ob (Zea mays (maize); [25]): 0%
- % visual injury, Ob (Zea mays (maize); [29]): 0%
- % visual injury, Ob [8, 16]: 0%
- % visual injury, Ob [8, 22]: 0%
- % visual injury, Ob [8, 18]: 0%
- % visual injury, Ob [8, 24]: 0%
- % visual injury, Ob [8, 19]: 0%
- % visual injury, Ob [8, 25]: 0%
- % visual injury, Ob [8, 20]: 0%
- % visual injury, Ob ([9]; isoxadifen-ethyl 20 g/ha): 0%
- % visual injury, Ob ([9]; isoxadifen-ethyl 40 g/ha): 0%
- % visual injury, Ob ([9]; isoxadifen-ethyl 80 g/ha): 0%
- % visual injury, Ob ([10]; isoxadifen-ethyl 10 g/ha): 0%
- % visual injury, Ob ([10]; isoxadifen-ethyl 20 g/ha): 0%
- % visual injury, Ob ([10]; isoxadifen-ethyl 40 g/ha): 0%
- % visual injury, Ob ([10]; isoxadifen-ethyl 80 g/ha): 0%
- % visual injury, Ob [11, 14]: 0%
- % visual injury, Ob [11, 15]: 0%
- % visual injury, Ob [11, 22]: 0%
- % visual injury, Ob [11, 17]: 0%
- % visual injury, Ob [11, 24]: 0%
- % visual injury, Ob [11, 25]: 0%
- % visual injury, Ob ([12]; isoxadifen-ethyl 20 g/ha): 0%
- % visual injury, Ob ([12]; isoxadifen-ethyl 40 g/ha): 0%
- % visual injury, Ob ([12]; isoxadifen-ethyl 80 g/ha): 0%
- % visual injury, Ob ([13]; isoxadifen-ethyl 20 g/ha, Example 4): 0%
- % visual injury, Ob [13, 26]: 0%
- % visual injury, Ob [13, 22]: 0%
- % visual injury, Ob ([13]; isoxadifen-ethyl 40 g/ha, Example 4): 0%
- % visual injury, Ob [13, 27]: 0%
- % visual injury, Ob [13, 24]: 0%
- % visual injury, Ob ([13]; isoxadifen-ethyl 80 g/ha, Example 4): 0%
- % visual injury, Ob [13, 28]: 0%
- % visual injury, Ob [13, 25]: 0%
- % visual injury, Ob ([13]; isoxadifen-ethyl 120 g/ha, Example 4): 0%
- % visual injury, Ob [13, 29]: 0%
